Assay results from patent US10844049B2, “GLP-1R agonists and uses thereof” (QILU REGOR THERAPEUTICS INC., priority 2018, dated 2020).
pEC50: −log10 of the molar value.

Assays:
GLP1R [1] = molecular target: T1, GLP1R (Homo sapiens, UniProt P43220); test: GLP1R cAMP assay, CHO cells stably expressing human GLP-1R; type: cell-based; conditions: CHO cells stably expressing GLP-1R, read-out: CHO cAMP stable EC50
Outline: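 Cells expressing human GLP-1R (1000 per well) incubated with compound for 30 min at 37°C in DPBS with 500 μM IBMX and 0.1% BSA, final DMSO 0.5%. cAMP measured by competitive HTRF after 60 min at room temperature, interpolated from a standard curve.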

GLP1R [2] = molecular target: T1, GLP1R; test: GLP-1R/β-Arrestin recruitment assay (PathHunter eXpress GLP1R CHO-K1 β-Arrestin GPCR Assay); type: cell-based; design: host or cells: PathHunter CHO-K1 GLP1R β-Arrestin cells; conditions: averaged Bmax, percentage of control GLP-1 (7-37), highest concentration tested
Description: GLP-1R agonist activity with respect to β-arrestin recruitment can be determined with a cell-based functional assay using PathHuntcr eXpress GLP1R CHO-K1 β-Arrestin GPCR Assay kit (DiscovcrX Cat #93-0300E2CP0M).
The PathHunter β-Arrestin GPCR assay technology utilizes a β-galactosidase (β-gal) enzyme that is split into two fragments, the smaller Enzyme Donor (ED) and the larger Enzyme Acceptor (EA). These fragments can be fused to two proteins that may interact with each other, such as EA-β-Arrestin and ED-GLP-1R. The fusions can be stably expressed in a test cell line, such as the PathHunter CHO-K1 GLP1R β-Arrestin cells described below.
Independently, these fragment fusions have no β-gal activity; however, in solution or in a living cell, they can be brought together and complement to form an active β-gal enzyme due to the interaction between the fused proteins, thus generating a chemiluminescent signal in the presence of a suitable β-gal substrate.
In this experiment, PathHunter CHO-K1 GLP1R β-Arrestin cells from the assay kit were plated at a density of 1000 or 2000 cells/20 μl/well in a 384-well white/clear bottom plates (Greiner Cat #781098). Frozen cells were quickly thawed and 10 mL of cell plating medium (provided by the kit) was added to thawed cells. Cells were stored in a 37° C. incubator under 5% CO2 and kept for approximately 48 hours until ready to ran the assay.
Reference and test compounds were dissolved in 100% DMSO. 5× concentration of an agonist was prepared in serum free DMEM (Thermo Cat #11965). 5 μL of this solution was added to 20 μL cell medium in assay plate for a final top concentration of 10 μM. Plates were then incubated at 37° C. under 5% CO2 for 90 min.
Following 90 min incubation, detection reagents were made up by combining 1 part Galacton Star Substrate with 5 parts Emerald II™ Solution, and 19 parts of PathHunter Cell Assay Buffer, respectively. 12.5 μL detection reagent was added to each well. The plates were then incubated at room temperature in dark for 60 min. Plates were then read on Envision for 0.1 sec/well.
EC50 determinations were made from agonist dose-response curves analyzed with a curve fitting program using a 4-parameter logistic dose response equation.
Cells were plated at a density of 1000 or 2000 cells/20 μL/well. Frozen cells were quickly thawed and added to 10 mL of cell plating medium. Cells were stored in a 37° C. incubator under 5% CO2 and left for approximately 48 hours until ready to run the assay.
• 1) Reference agonist compound GLP1 (7-37): dissolved with DMSO to make 1 mM stock solutions, aliquoted and stored at −80° C. • 2) Test compounds (such as the compounds of the invention) came solubilized in 100% DMSO.
Prepare 10× concentration of an agonist in serum free DMEM, and add all solutions into the compound plate. 2.5 μL of this solution was added to 20 μL cell medium in assay plate for a final top concentration of 10 μM. Plates were incubated at 37° C. under 5% CO2 for 30 min. An additional 2.5 μL of Buffer was added to the entire plate for agonist mode and incubated at 37° C. for another 90 min.
Following 90 min incubation, detection reagents were made up as described. 12.5 μL was added to all wells. The plates were then incubated at room temperature in dark for 60 min. Plates were then read on Envision for 0.1 sec/well.
Data analysis: GraphPad Prism 6 was used for establishment of progression curve. EC50S or IC50s were determined by 4-parameter logistic dose response equation.

T1 sequence (P43220 24-463): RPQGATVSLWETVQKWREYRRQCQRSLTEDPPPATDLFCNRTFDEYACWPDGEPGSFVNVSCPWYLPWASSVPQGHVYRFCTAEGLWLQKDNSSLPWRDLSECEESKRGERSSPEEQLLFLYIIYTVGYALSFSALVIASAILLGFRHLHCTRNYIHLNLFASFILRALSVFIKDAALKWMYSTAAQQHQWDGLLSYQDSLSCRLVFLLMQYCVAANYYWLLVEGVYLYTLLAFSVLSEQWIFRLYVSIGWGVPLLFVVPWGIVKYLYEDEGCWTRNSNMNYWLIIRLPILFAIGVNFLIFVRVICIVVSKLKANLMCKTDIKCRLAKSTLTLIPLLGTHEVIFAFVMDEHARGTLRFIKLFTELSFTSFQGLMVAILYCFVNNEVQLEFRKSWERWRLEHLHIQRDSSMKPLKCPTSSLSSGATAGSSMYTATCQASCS

SMILES	pEC50 (GLP1R [1])	Bmax (POC) (GLP1R [2])
O=C(O)c1ccc2nc(CN3CCC(c4ccnc(OCc5ccc(Cl)cc5F)n4)CC3)n(C[C@@H]3CCO3)c2c1 [Compound 18, (S)-2-((4-(2-((4-chloro-2-fluorobenzyl)oxy)pyrimidin-4-yl)piperidin-1-yl)methyl)-1-(oxetan-2-ylmethyl)-1H-benzo[d]imidazole-6-carboxylic acid]	≥ 6.82	26.2 ± 1.55
N#Cc1ccc(COc2cccc(C3=CCN(Cc4nc5ccc(C(=O)O)cc5n4C[C@@H]4CCO4)CC3)n2)c(F)c1 [Compound 19, (S)-2-((4-(6-(4-cyano-2-fluorobenzyloxy)pyridin-2-yl)-5,6-dihydropyridin-1(2H)-yl)methyl)-1-(oxetan-2-ylmethyl)-1 h-benzo[d]imidazole-6-carboxylic add]	≥ 7.82	26.0 ± 2.78
O=C(O)c1ccc2nc(CN3CC=C(c4cccc(OCc5ccc(-n6ccnc6)cc5)n4)CC3)n(C[C@@H]3CCO3)c2n1 [Compound 245, (S)-2-((4-(6-(4-(1H-imidazol-1-yl)benzyloxy)pyridin-2-yl)-5,6-dihydropyridin-1(2H)-yl)methyl)-3-(oxetan-2-ylmethyl)-3H-imidazo[4,5-b]pyridine-5-carboxylic add]	≥ 7.82	38.0 ± 6.42
O=C(O)c1ccc2nc(CN3CC=C(c4ccc(F)c(OCc5ccc(Cl)cc5F)c4)CC3)n(C[C@@H]3CCO3)c2c1F [Compound 238, (S)-2-((4-(3-((4-chloro-2-fluorobenzyl)oxy)-4-fluorophenyl)-3,6-dihydropyridin-1(2H)-yl)methyl)-7-fluoro-1-(oxetan-2-ylmethyl)-1H-benzo[d]imidazole-6-carboxylic acid]	≥ 6.82	55.8 ± 14.1
O=C(O)c1ccc2nc(CN3CC=C(c4cncc(OCc5ccc(Cl)cc5F)n4)CC3)n(C[C@@H]3CCO3)c2c1 [Compound 34, (S)-2-((4-(6-(4-chloro-2-fluorobenzyloxy)pyrazin-2-yl)-5,6-dihydropyridin-1(2H)-yl)methyl)-1-(oxetan-2-ylmethyl)-1 h-benzo[d]imidazole-6-carboxylic acid]	≥ 6.82	20.2 ± 1.89
